According to US12655156B2, “Oxadiazolopyrazines and oxadiazolopyridines useful as mitochondrial uncouplers” (Virginia Tech Intellectual Properties, Inc., priority 2018, dated 2026):

System: whole cells (NMuLi, C2C12, and L6 cells, isolated cardiomyocytes, human primary fibroblasts)
Assay: Oxygen consumption rate (OCR) in whole cells, Seahorse XF-24 Flux Analyzer
Format: cell-based
Settings: increase in OCR; binned EC50 values
Summary of the method: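 NMuLi, C2C12 and L6 cells (3.5×10^4/well), cardiomyocytes (4×10^4/well) and human primary fibroblasts (1.1×10^4/well) adhered 24 h, then equilibrated 30 min at 37° C in unbuffered DMEM with pyruvate and glutamine, pH 7.4. Compounds injected during run; OCR read over 2 min periods. EC50 for OCR increase, binned.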

| Structure (SMILES) | EC50 [µM] |
| --- | --- |
| Oc1nc2nonc2nc1Nc1ccc(-c2ccc(F)cc2)c(F)c1 [1-125, 6-((2,4′-difluoro-[1,1′-biphenyl]-4-yl)amino)-[1,2,5]oxadiazolo[3,4-b]pyrazin-5-ol] | ≤ 5 |
| CC(C)(C)c1cccc(Nc2nc3nonc3nc2O)c1 [1-53, 6-((3-(tert-Butyl)phenyl)amino)-[1,2,5]oxadiazolo[3,4-b]pyrazin-5-ol] | ≤ 5 |
| Oc1nc2nonc2nc1Nc1ccc(SC(F)(F)F)cc1 [1-25, 6-((4-((Trifluoromethyl)thio)phenyl)amino)-[1,2,5]oxadiazolo[3,4-b]pyrazin-5-ol] | ≤ 5 |
| Oc1nc2nonc2nc1Nc1cccc(-c2ccc3c(c2)OC(F)(F)O3)c1 [1-126, 6-((3-(2,2-difluorobenzo[d][1,3]dioxol-5-yl)phenyl)amino)-[1,2,5]oxadiazolo[3,4-b]pyrazin-5-ol] | ≤ 5 |
| Oc1nc2nonc2nc1Nc1ccc(OC(F)(F)Cl)cc1 [1-29, 6-((4-(Chlorodifluoromethoxy)phenyl)amino)-[1,2,5]oxadiazolo[3,4-b]pyrazin-5-ol] | ≤ 5 |
| O=C(Nc1nc2nonc2nc1OCc1ccccc1)c1ccc(C(F)(F)F)cc1 [1-196, N-(6-(benzyloxy)-[1,2,5]oxadiazolo[3,4-b]pyrazin-5-yl)-4-(trifluoromethyl)benzamide] | 5 to 20 |
| Oc1nc2nonc2nc1Nc1ccc(I)cc1 [1-19, 6-((4-Iodophenyl)amino)-[1,2,5]oxadiazolo[3,4-b]pyrazin-5-ol] | 5 to 20 |
| Oc1nc2nonc2nc1Nc1ccc(-c2ccc(OC(F)F)cc2)cc1 [1-108, 6-((4′-(difluoromethoxy)-[1,1′-biphenyl]-4-yl)amino)-[1,2,5]oxadiazolo[3,4-b]pyrazin-5-ol] | ≤ 5 |
| Oc1nc2nonc2nc1Nc1ccc(C(O)(C(F)(F)F)C(F)(F)F)cc1 [1-26, 6-((4-(1,1,1,3,3,3-Hexafluoro-2-hydroxypropan-2-yl)phenyl)amino)-[1,2,5]oxadiazolo[3,4-b]pyrazin-5-ol] | > 20 |
| Oc1nc2nonc2nc1Nc1cc(C(F)(F)F)cc(C(F)(F)F)c1 [1-34, 6-((3,5-Bis(trifluoromethyl)phenyl)amino)-[1,2,5]oxadiazolo[3,4-b]pyrazin-5-ol] | 5 to 20 |
| Oc1nc2nonc2nc1Nc1ccc(OCCCC(F)(F)F)c(F)c1 [1-99, 6-((3-fluoro-4-(4,4,4-trifluorobutoxy)phenyl)amino)-[1,2,5]oxadiazolo[3,4-b]pyrazin-5-ol] | ≤ 5 |
| Oc1nc2nonc2nc1Nc1cccc(-c2cc(F)cc(F)c2)c1 [1-119, 6-((3′,5′-difluoro-[1,1′-biphenyl]-3-yl)amino)-[1,2,5]oxadiazolo[3,4-b]pyrazin-5-ol] | ≤ 5 |
| CCc1cccc(Nc2nc3nonc3nc2O)c1 [1-46, 6-((3-Ethylphenyl)amino)-[1,2,5]oxadiazolo[3,4-b]pyrazin-5-ol] | 5 to 20 |
| Oc1nc2nonc2cc1Nc1ccc(OC(F)(F)F)cc1F [1-251, 6-((2-fluoro-4-(trifluoromethoxy)phenyl)amino)-[1,2,5]oxadiazolo[3,4-b]pyridin-5-ol] | ≤ 5 |
| CCCCC#Cc1ccc(Nc2nc3nonc3nc2O)c(OC(F)(F)F)c1 [1-65, 6-((4-(Hex-1-yn-1-yl)-2-(trifluoromethoxy)phenyl)amino)-[1,2,5]oxadiazolo[3,4-b]pyrazin-5-ol] | 5 to 20 |
| Oc1nc2nonc2nc1Nc1ccc(-c2ccc3c(c2)OCO3)cc1 [1-122, 6-((4-(benzo[d][1,3]dioxol-5-yl)phenyl)amino)-[1,2,5]oxadiazolo[3,4-b]pyrazin-5-ol] | > 20 |
| Oc1nc2nonc2nc1Nc1ccc2ccccc2c1 [1-44, 6-(Naphthalen-2-ylamino)-[1,2,5]oxadiazolo[3,4-b]pyrazin-5-ol] | ≤ 5 |
| Oc1nc2nonc2nc1Nc1ccc(S(F)(F)(F)(F)F)cc1 [1-30, 6-((4-(Pentafluoro-16-sulfaneyl)phenyl)amino)-[1,2,5]oxadiazolo[3,4-b]pyrazin-5-ol] | ≤ 5 |
| Cc1cccc(C)c1Nc1nc2nonc2nc1O [1-56, 6-((2,6-Dimethylphenyl)amino)-[1,2,5]oxadiazolo[3,4-b]pyrazin-5-ol] | ≤ 5 |
| Oc1nc2nonc2nc1Nc1ccc(C(F)(F)F)cc1 [1-7, 6-((4-(Trifluoromethyl)phenyl)amino)-[1,2,5]oxadiazolo[3,4-b]pyrazin-5-ol] | 5 to 20 |
| Oc1nc2nonc2nc1Nc1ccccc1Cl [1-20, 6-((2-Chlorophenyl)amino)-[1,2,5]oxadiazolo[3,4-b]pyrazin-5-ol] | 5 to 20 |
| Oc1nc2nonc2nc1Nc1ccc(F)cc1 [1-5, 6-((4-Fluorophenyl)amino)-[1,2,5]oxadiazolo[3,4-b]pyrazin-5-ol] | > 20 |
| Oc1nc2nonc2nc1Nc1cc(C(F)(F)F)ccc1F [1-17, 6-((2-Fluoro-5-(trifluoromethyl)phenyl)amino)-[1,2,5]oxadiazolo[3,4-b]pyrazin-5-ol] | 5 to 20 |

| Structure (SMILES) | EC50 [µM] |
| --- | --- |
| O=[N+]([O-])c1cc(Nc2nc3nonc3nc2O)ccc1OC(F)(F)F [1-40, 6-((3-Nitro-4-(trifluoromethoxy)phenyl)amino)-[1,2,5]oxadiazolo[3,4-b]pyrazin-5-ol] | > 20 |
| CCCCC#Cc1ccc(Nc2nc3nonc3nc2O)c(F)c1 [1-63, 6-((2-Fluoro-4-(hex-1-yn-1-yl)phenyl)amino)-[1,2,5]oxadiazolo[3,4-b]pyrazin-5-ol] | ≤ 5 |
| CCCCCCc1ccc(Nc2nc3nonc3nc2O)c(OC(F)(F)F)c1 [1-70, 6-((4-hexyl-2-(trifluoromethoxy)phenyl)amino)-[1,2,5]oxadiazolo[3,4-b]pyrazin-5-ol] | 5 to 20 |
| Cc1ccc(Nc2nc3nonc3nc2O)cc1C [1-60, 6-((3,4-Dimethylphenyl)amino)-[1,2,5]oxadiazolo[3,4-b]pyrazin-5-ol] | 5 to 20 |
| Oc1nc2nonc2cc1Nc1cccc(F)c1F [1-250, 6-((2,3-difluorophenyl)amino)-[1,2,5]oxadiazolo[3,4-b]pyridin-5-ol] | ≤ 5 |
| Oc1nc2nonc2nc1Nc1ccc2c(c1)OC(F)(F)O2 [1-93, 6-((2,2-difluorobenzo[d][1,3]dioxol-5-yl)amino)-[1,2,5]oxadiazolo[3,4-b]pyrazin-5-ol] | 5 to 20 |
| Oc1nc2nonc2nc1Nc1ccc(OC(F)(F)F)c(F)c1 [1-11, 6-((3-Fluoro-4-(trifluoromethoxy)phenyl)amino)-[1,2,5]oxadiazolo[3,4-b]pyrazin-5-ol] | ≤ 5 |
| Oc1nc2nonc2nc1Nc1ccc(-c2ccc(F)c(C(F)F)c2)cc1 [1-109, 6-((3′-(difluoromethyl)-4′-fluoro-[1,1′-biphenyl]-4-yl)amino)-[1,2.5]oxadiazolo[3.4-b]pyrazin-5-ol] | ≤ 5 |
| Oc1nc2nonc2nc1Nc1cccc(I)c1 [1-18, 6-((3-Iodophenyl)amino)-[1,2,5]oxadiazolo[3,4-b]pyrazin-5-ol] | 5 to 20 |
| Oc1nc2nonc2nc1Nc1cc(F)cc(F)c1 [1-15, 6-((3,5-Difluorophenyl)amino)-[1,2,5]oxadiazolo[3,4-b]pyrazin-5-ol] | 5 to 20 |
| CCc1ccc(Nc2nc3nonc3nc2O)c(F)c1 [1-68, 6-((4-ethyl-2-fluorophenyl)amino)-[1,2,5]oxadiazolo[3,4-b]pyrazin-5-ol] | 5 to 20 |
| Oc1nc2nonc2nc1Nc1cccc(-c2ccc3c(c2)OCO3)c1 [1-120, 6-((3-(benzo[d][1,3]dioxol-5-yl)phenyl)amino)-[1,2,5]oxadiazolo[3,4-b]pyrazin-5-ol] | ≤ 5 |
| O=C(COc1cccc(Nc2nc3nonc3nc2O)c1)c1ccc(OC(F)(F)F)cc1 [1-98, 2-(3-((6-hydroxy-[1,2,5]oxadiazolo[3,4-b]pyrazin-5-yl)amino)phenoxy)-1-(4-(trifluoromethoxy)phenyl)ethan-1-one] | 5 to 20 |
| COc1nc2nonc2cc1Nc1ccc(-c2ccc(C(F)(F)F)nc2)cc1 [1-225, 5-methoxy-N-(4-(6-(trifluoromethyl)pyridin-3-yl)phenyl)-[1,2,5]oxadiazolo[3,4-b]pyridin-6-amine] | > 20 |
| CCCCc1ccc(Nc2nc3nonc3nc2O)cc1 [1-54, 6-((4-Butylphenyl)amino)-[1,2,5]oxadiazolo[3,4-b]pyrazin-5-ol] | ≤ 5 |
| COc1cc(-c2ccc(Nc3nc4nonc4nc3O)cc2)ccc1F [1-128, 6-((4′-fluoro-3′-methoxy-[1,1′-biphenyl]-4-yl)amino)-[1,2,5]oxadiazolo[3,4-b]pyrazin-5-ol] | > 20 |
| CC(=O)c1ccc(Nc2nc3nonc3nc2O)cc1 [1-47, 1-(4-((6-Hydroxy-[1,2,5]oxadiazolo[3,4-b]pyrazin-5-yl)amino)phenyl)ethan-1-one] | > 20 |
| CCCCCCc1ccc(Nc2nc3nonc3nc2O)cc1 [1-72, 6-((4-hexylphenyl)amino)-[1,2,5]oxadiazolo[3,4-b]pyrazin-5-ol] | 5 to 20 |
| Oc1nc2nonc2nc1Nc1ccc(OC(F)(F)F)c(Br)c1 [1-39, 6-((3-Bromo-4-(trifluoromethoxy)phenyl)amino)-[1,2,5]oxadiazolo[3,4-b]pyrazin-5-ol] | ≤ 5 |
| Oc1nc2nonc2nc1Nc1ccc(OC(F)(F)F)cc1F [1-36, 6-((2-Fluoro-4-(trifluoromethoxy)phenyl)amino)-[1,2,5]oxadiazolo[3,4-b]pyrazin-5-ol] | ≤ 5 |
| CC(=O)COc1nc2nonc2nc1Nc1ccc(-c2ccc(F)cc2)cc1 [1-190, 1-((6-((4′-fluoro-[1,1′-biphenyl]-4-yl)amino)-[1,2,5]oxadiazolo[3,4-b]pyrazin-5-yl)oxy)propan-2-one] | ≤ 5 |
| CCCC#Cc1ccc(Nc2nc3nonc3nc2O)c(F)c1 [1-62, 6-((2-Fluoro-4-(pent-1-yn-1-yl)phenyl)amino)-[1,2,5]oxadiazolo[3,4-b]pyrazin-5-ol] | ≤ 5 |
| CCCCc1ccc(Nc2nc3nonc3nc2O)c(F)c1 [1-55, 6-((4-Butyl-2-fluorophenyl)amino)-[1,2,5]oxadiazolo[3,4-b]pyrazin-5-ol] | ≤ 5 |
